Experimental findings from patent US20250034110A1, “LPAR1 ANTAGONISTS AND USES THEREOF” (Pipeline Therapeutics, Inc., priority 2021, published 2025) are described below.

Read-outs that look alike come from different tables or passages of the source.

For the assay, the target named is human LPAR1 (Homo sapiens, UniProt Q92633). Nature of the assay: In vitro functional assay of lysophosphatidic acid receptor 1 activity (calcium flux). The class given is cell-based.
[1] abbreviates: B103 cells stably expressing human LPAR1, calcium flux (Fluo-4 NW) after lysophosphatidic acid (18:1) at EC80, 100 pM to 10 μM, read-out: LPAR1 IC50.

Sequence of human LPAR1 (Q92633 whole entry): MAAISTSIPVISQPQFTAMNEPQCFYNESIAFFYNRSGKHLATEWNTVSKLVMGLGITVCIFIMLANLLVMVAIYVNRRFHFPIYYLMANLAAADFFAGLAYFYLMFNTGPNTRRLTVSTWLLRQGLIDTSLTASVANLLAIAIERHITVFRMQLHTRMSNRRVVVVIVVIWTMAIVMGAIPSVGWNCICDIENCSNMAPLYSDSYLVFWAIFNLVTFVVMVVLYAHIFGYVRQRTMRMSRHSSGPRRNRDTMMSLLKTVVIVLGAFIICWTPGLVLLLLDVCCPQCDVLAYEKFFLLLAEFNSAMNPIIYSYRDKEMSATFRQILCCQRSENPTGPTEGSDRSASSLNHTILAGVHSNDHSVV

`COc1ccc(NC(=O)N(c2ccccc2C(C)C)[C@@H]2C[C@H]3CC[C@@H](C2)N3C(C)=O)c(OC(F)F)n1` [Example 54, 1-((1R,3s,5S)-8-acetyl-8-azabicyclo[3.2.1]octan-3-yl)-3-(2-(difluoromethoxy)-6-methoxypyridin-3-yl)-1-(2-isopropylphenyl)urea]: the IC50 (LPAR1 IC50) fell in the range of 10 to 100 nM. Still for that read-out and setting: under `CC(=O)N1C[C@@H]2[C@H](C1)[C@H]2N(C(=O)Nc1ccc(C)nc1OC(F)F)c1ccccc1C(C)C` [Example 69, 1-((1R,5S,6s)-3-acetyl-3-azabicyclo[3.1.0]hexan-6-yl)-3-(2-(difluoromethoxy)-6-methylpyridin-3-yl)-1-(2-isopropylphenyl)urea] stands 100 to 1000 nM; under `CC(=O)N1CCC(N(C(=O)Nc2ccc(C)nc2OC(F)F)c2cccc(C(C)C)c2)CC1` [Example 32, 1-(1-acetylpiperidin-4-yl)-3-(2-(difluoromethoxy)-6-methylpyridin-3-yl)-1-(3-isopropylphenyl)urea], 100 to 1000 nM. For `COc1ccc(NC(=O)N(c2ccccc2C(C)C)[C@H]2CC[C@@](O)(C(F)(F)C(=O)O)CC2)c(OC(F)F)n1` [Example 321, 2-((1r,4r)-4-(3-(2-(difluoromethoxy)-6-methoxypyridin-3-yl)-1-(2-isopropylphenyl)ureido)-1-hydroxycyclohexyl)-2,2-difluoroacetic acid], the IC50 under setting [1] is less than 10 nM. Same read-out and setting: under `Cc1ccc(NC(=O)N(c2ccccc2C(C)C)C2CC(CC(=O)O)C2)c(OC(F)F)n1` (stereo not drawn) [Example 160, 2-(3-(3-(2-(difluoromethoxy)-6-methylpyridin-3-yl)-1-(2-isopropylphenyl)ureido)cyclobutyl)acetic acid] stands less than 10 nM. As for `COc1nc(C#N)ccc1NC(=O)N(c1ccccc1C(C)C)C1CCN(C(C)=O)CC1` [Example 185, 1-(1-acetylpiperidin-4-yl)-3-(6-cyano-2-methoxypyridin-3-yl)-1-(2-isopropylphenyl)urea], for the setting “LPAR1 IC50”, the IC50 was 100 to 1000 nM.

Turning to `COc1ccc(NC(=O)N(c2ccccc2C(C)C)C2CN(C(C)=O)C2)c(OC)c1C` [Example 119], under setting [1], the IC50 lay within 100 to 1000 nM. As for `Cc1ccc(NC(=O)N(C[C@@H]2C[C@H]2C(=O)O)c2ccccc2C(C)C)c(OC(F)F)n1` (racemic) [Example 228], under setting [1], the IC50 lay within 100 to 1000 nM.

Consider `COc1cc(F)c(Cl)cc1NC(=O)N(c1ccccc1C(C)C)[C@H]1CC[C@H](C(=O)O)CC1` [Example 300, (1r,4r)-4-(3-(5-chloro-4-fluoro-2-methoxyphenyl)-1-(2-isopropylphenyl)ureido)cyclohexane-1-carboxylic acid], for which, under setting [1], the IC50 fell in the range of 100 to 1000 nM. For `CC(=O)N1CCC(N(C(=O)Nc2cnc(C(F)(F)F)cn2)c2ccccc2C(C)C)CC1` [Example 132], the IC50 (LPAR1 IC50) is more than 1000 nM. As for `CC(C)c1ccccc1N(C(=O)Nc1ccc(Cl)cn1)[C@H]1CC[C@H](C(=O)O)CC1` [Example 297, (1r,4r)-4-(3-(5-chloropyridin-2-yl)-1-(2-isopropylphenyl)ureido)cyclohexane-1-carboxylic acid], the IC50 under setting [1] lay within 10 to 100 nM.

Regarding `COc1cc(C)c(Cl)cc1NC(=O)N(c1ccccc1C(C)C)[C@H]1CC[C@H](C(=O)O)CC1` [Example 328, (1r,4r)-4-(3-(5-chloro-2-methoxy-4-methylphenyl)-1-(2-isopropylphenyl)ureido)cyclohexane-1-carboxylic acid], under setting [1], the IC50 is 10 to 100 nM. Still for that read-out and setting: under `CC(=O)N1CC2(CC(N(C(=O)Nc3ccc(C)cc3OC(F)F)c3ccccc3C(C)C)C2)C1` [Example 125, 1-(2-acetyl-2-azaspiro[3.3]heptan-6-yl)-3-(2-(difluoromethoxy)-4-methylphenyl)-1-(2-isopropylphenyl)urea] stands 10 to 100 nM; under `COc1ccc(NC(=O)N(c2ccccc2C2CC2)[C@H]2CC[C@H](C(=O)O)CC2)c(OC(F)F)n1` [Example 275], 10 to 100 nM; under `Cc1ccc(NC(=O)N(c2ccccc2C(C)C)C2CC3(C2)CN(S(N)(=O)=O)C3)c(OC(F)F)c1` [Example 128], 10 to 100 nM.

As for `Cc1ccc(NC(=O)N(c2ccccc2C(C)C)[C@H]2CC[C@@](C)(C(=O)O)CC2)c(OC(F)F)n1` [Example 308], under setting [1], the IC50 was 100 to 1000 nM. On the same count and under the same terms, under `Cc1ccc(NC(=O)N(c2ccccc2C(C)C)C2CC3(C2)CS(=O)(=O)C3)c(OC(F)F)n1` [Example 21, 3-(2-(difluoromethoxy)-6-methylpyridin-3-yl)-1-(2,2-dioxido-2-thiaspiro[3.3]heptan-6-yl)-1-(2-isopropylphenyl)urea] stands 100 to 1000 nM. With `CC(=O)N1CCC(N(C(=O)Nc2ccc(C)[n+]([O-])c2OC(F)F)c2ccccc2C(C)C)CC1` [Example 197, 3-(3-(1-acetylpiperidin-4-yl)-3-(2-isopropylphenyl)ureido)-2-(difluoromethoxy)-6-methylpyridine 1-oxide], the IC50 (LPAR1 IC50) was more than 1000 nM. Take `CC(C)c1ccccc1N(C(=O)Nc1ccc(Cl)c(F)c1)[C@H]1CC[C@H](C(=O)O)CC1` [Example 158, trans-4-(3-(4-chloro-3-fluorophenyl)-1-(2-isopropylphenyl)ureido)cyclohexane-1-carboxylic acid]: under setting [1], the IC50 was in the range of 10 to 100 nM. Same read-out and setting: under `Cc1ccc(NC(=O)N(c2ccccc2C(C)C)[C@H]2CCN(C(=O)OC(C)(C)C)C2)c(OC(F)F)n1` [Example 8, tert-butyl (S)-3-(3-(2-(difluoromethoxy)-6-methylpyridin-3-yl)-1-(2-isopropylphenyl)ureido)pyrrolidine-1-carboxylate] stands 100 to 1000 nM; under `Cc1ccc(NC(=O)N(c2ccccc2C(C)C)C2CN(C(=O)Cn3nccn3)C2)c(OC(F)F)n1` [Example 80, 1-(1-(2-(2H-1,2,3-triazol-2-yl)acetyl)azetidin-3-yl)-3-(2-(difluoromethoxy)-6-methylpyridin-3-yl)-1-(2-isopropylphenyl)urea], 100 to 1000 nM; under `Cc1ccc(NC(=O)N(c2ccccc2C(C)C)[C@@H]2CCOC2)c(OC(F)F)n1` [Example 16, (R)-3-(2-(difluoromethoxy)-6-methylpyridin-3-yl)-1-(2-isopropylphenyl)-1-(tetrahydrofuran-3-yl)urea], 10 to 100 nM. Still for that read-out and setting: under `Cc1ccc(NC(=O)N(c2ccccc2C(C)C)C2CN(S(C)(=O)=O)C2)c(OC(F)F)n1` [Example 74, 3-(2-(difluoromethoxy)-6-methylpyridin-3-yl)-1-(2-isopropylphenyl)-1-(1-(methylsulfonyl)azetidin-3-yl)urea] stands 100 to 1000 nM; under `Cc1ccc(NC(=O)N(c2ccccc2C(C)C)C2CCS(=O)(=O)CC2)c(OC(F)F)n1` [Example 20, 3-(2-(difluoromethoxy)-6-methylpyridin-3-yl)-1-(1,1-dioxidotetrahydro-2H-thiopyran-4-yl)-1-(2-isopropylphenyl)urea], 10 to 100 nM.
